These results are taken from patent publication US20030229113A1, “Keratinocyte growth inhibitors and hydroxamic acid derivatives” (priority 2003, published 2003).

The subject of assay [1] is solubilizing enzyme of HB-EGF. In words: Inhibition of TPA-stimulated release of HB-EGF from HT-1080 transfectant expressing HB-EGF/alkaline phosphatase fusion protein. The settings on record: HT-1080 HB-EGF-AP transfectant, TPA 60 nM for 60 min, AP activity in conditioned medium (OD405). It counts as cell-based, human. As for the experimental part:
Human fibrosarcoma HT-1080 stable transfectant expressing fusion protein of HB-EGF and human placental alkaline phosphatase (AP) were used for following experiments.
The cultured transfectant was treated with Trypsin-EDTA solution, and suspended in Minimum Essential Medium (without phenol red; supplemented with 10% heat-inactivated fetal calf serum; MEM) at the concentration of 1×10^5 cells/ml. Each 0.2 ml of the cell suspension was dispensed into individual wells of 96 well microplate, and incubated overnight in the CO2 incubator (37° C.). After the incubation, the conditioned medium was removed, and the wells were washed once with 0.2 ml of phosphate buffered saline. The cells were treated with 0.1 ml of compound solution [compound solutions in dimethylsulfoxide (DMSO) were diluted 100 times with MEM] for 30 min at 37° C. Then the compound solutions were removed, and cells were treated with 0.2 ml of TPA solution (120 μM) of stock solution was diluted to 60 nM with MEM) containing same concentration of the compound for 60 min at 37° C. The cells treated same procedure without compound were used as control.
After these treatments, each 0.1 ml of conditioned medium was transferred to individual wells of new 96 well microplate and incubated at 65° C. for 10 min to inactivate endogenous alkaline phosphatase. One hundred microliter of substrate solution (1 mg/ml of p-nitrophenyl phosphate in 0.01% magnesium chloride/1 M diethanolamine) for AP was added to each well and incubated for 120 min at room temperature in the dark. The OD405 of each well was measured with microplate reader. The IC50 values of the compounds were calculated from the concentration-inhibition curves.

The subject of assay [2] is epidermal hyperplasia induced by TPA. In words: TPA-induced epidermal hyperplasia on dorsal skin of mice. In kind it is in vivo, male BALB/c mice. The settings on record: ED50; topical in acetone at 1 minute, 24 and 48 hours after TPA; epidermal thickness 72 hours after TPA. How it is done:
After backs of male BALB/c mice were shaved, 20 micro 1 of TPA-acetone solution (50 μM) was applied to the dorsal skin surface in an area of ca. 1 cm^2. A volume of 20 micro 1 of test compound-acetone solution was applied to the same area a minute, 24 hours and 48 hours after TPA application (the treated group). In the non-treated group, acetone was applied instead of the test compound. In the control group, acetone was applied instead of TPA and the test compound. The mice were sacrificed, and the skin tissues treated with TPA or the test compound were excised 72 hours after TPA application. Then the tissues were fixed with 10% formalin and embedded in paraffin according to the conventional method. The vertical sections including the center of the TPA- or the test compound-treated area were prepared and they were stained by hematoxylin-eosin. The epidermal thickness was measured using an ocular microscope. The amount of the test compound required for achieving 50% inhibition against the mean epidermal thickness of the non-treated group (ED50) was calculated, wherein the mean epidermal thickness of the non-treated group was 100% and that of the control group was 0%.

Assay [3] concerns re-epithelialization of skin wound. The assay can be described thus: Re-epithelialization in mouse skin wound model. In kind it is in vivo, male BALB/c mice. The settings on record: 50% inhibition of re-epithelialization; applied to 6-mm wound once a day. As for the experimental part: Wound healing model was prepared according to the method described by Tsuboi, et al. [J. Dermatol., 19, 673-675 (1992)]. Briefly, after backs of male BALB/c mice were shaved, two full-thickness round wounds were prepared in parallel to anterior-posterior axis on the back of each mouse using a punch biopsy instrument (6-mm diameter). After the operation, a test compound dissolved or suspended in 0.1M phosphate-buffered saline containing 1.5% sodium carboxymethylcellulose (vehicle) was applied to each wound in a volume of 50 μl/wound. The wounds were left open. From the following day, the compound was applied to each wound once a day for 7 days (the treated group). In the control group, vehicle solution only was applied in the same manner. One day after the last application, mice were sacrificed and skin tissues around the anterior wound were excised. The tissues were fixed with 10% formalin and embedded in paraffin according to the conventional method. The sections were made perpendicularly to the anterior-posterior axis. Keratinocytes in the specimen were stained with an anti-keratin antibody. Measurements of wound size and epidermal migration were performed by using an image-analyzing software. Re-epithelialization was calculated as follows; [formula]
The amount of the test compound required for achieving 50% inhibition against the mean re-epithelialization of the control group (ED50) was calculated.

Structures are written as SMILES. Like-named read-outs stand apart in the source and are kept apart here.

For `COc1ccc(S(=O)(=O)N2Cc3nccnc3CC2C(=O)NO)cc1` (single isomer, unassigned; (+)) [the compound(13), (+)-N-Hydroxy-6-(4-methoxybenzenesulfonyl)-5,6,7,8-tetrahydropyrido[3,4-b]pyrazine-7-carboxamide], the IC50 (in general, the point on the concentration scale where inhibition reaches its midpoint) in assay [1] (read-out: IC50) turned out to be 350 nM. Further, the “Amount of test compound required for 50% suppression of epidermal hyperplasia” value in assay [2] was 350 10^−6 g/cm^2. For the same molecule, the ED50 in assay [3] is on record as 4.5 10^−6 g/0.3 cm^2.
On the same counts, the results for `COCCCOc1ccc(S(=O)(=O)N2Cc3nccnc3CC2C(=O)NO)cc1` (single isomer, unassigned; (+)) [the compound(14), (+)-N-Hydroxy-6-[4-(3-methoxypropoxy)benzenesulfonyl]-5,6,7,8-tetrahydropyrido[3,4-b]pyrazine-7-carboxamide] are 53 nM, 300 10^−6 g/cm^2 and 9.8 10^−6 g/0.3 cm^2.
On the same counts, the results for `CCOc1ccc(S(=O)(=O)N2Cc3nccnc3CC2C(=O)NO)cc1` (single isomer, unassigned; (+)) [the compound(15), (+)-N-Hydroxy-6-(4-ethoxybenzenesulfonyl)-5,6,7,8-tetrahydropyrido[3,4-b]pyrazine-7-carboxamide] are 310 nM, 370 10^−6 g/cm^2 and 5.2 10^−6 g/0.3 cm^2.
Take `CCCOc1ccc(S(=O)(=O)N2Cc3nccnc3CC2C(=O)NO)cc1` (single isomer, unassigned; (+)) [the compound(16), (+)-N-Hydroxy-6-(4-propoxybenzenesulfonyl)-5,6,7,8-tetrahydropyrido[3,4-b]pyrazine-7-carboxamide]: the IC50 in assay [1] (read-out: IC50) is 1000 nM. Moreover, the ED50 in assay [3] is listed as 11.6 10^−6 g/0.3 cm^2.
Turning to `COCCOc1ccc(S(=O)(=O)N2Cc3nccnc3CC2C(=O)NO)cc1` (single isomer, unassigned; (+)) [the compound(19), (+)-N-Hydroxy-6-[4-(2-methoxyethoxy)benzenesulfonyl]-5,6,7,8-tetrahydropyrido[3,4-b]pyrazine-7-carboxamide], the half-maximal inhibitory concentration (IC50) in assay [1] (read-out: IC50) was determined as 360 nM. Besides, in assay [2], the “Amount of test compound required for 50% suppression of epidermal hyperplasia” value is recorded as 200 10^−6 g/cm^2. The ED50 in assay [3] is recorded as 16.6 10^−6 g/0.3 cm^2.
As to `O=C(NO)C1Cc2nccnc2CN1S(=O)(=O)c1ccc(Oc2ccccc2)cc1` (single isomer, unassigned; (+)) [the compound(20), (+)-N-Hydroxy-6-(4-phenoxybenzenesulfonyl)-5,6,7,8-tetrahydropyrido[3,4-b]pyrazine-7-carboxamide], the IC50 in assay [1] (read-out: IC50) was determined as 410 nM. In addition, the “Amount of test compound required for 50% suppression of epidermal hyperplasia” value in assay [2] is listed as 27 10^−6 g/cm^2. In assay [3], the ED50 is 9.7 10^−6 g/0.3 cm^2.
Molecule `CSCCCOc1ccc(S(=O)(=O)N2Cc3nccnc3CC2C(=O)NO)cc1` (single isomer, unassigned; (+)) [the compound(21), (+)-N-Hydroxy-6-[4-(3-methylthiopropoxy)benzenesulfonyl]-5,6,7,8-tetrahydropyrido[3,4-b]pyrazine-7-carboxamide] came in with an IC50 in assay [1] of 100 nM. For the same molecule, in assay [2], the “Amount of test compound required for 50% suppression of epidermal hyperplasia” value is 230 10^−6 g/cm^2. For the same molecule, the ED50 in assay [3] was 11.0 10^−6 g/0.3 cm^2.
`CNC(=O)C(Cc1cccc2ccccc12)NC(=O)C(CC(=O)NO)CC(C)C` [the compound d, [4-(N-hydroxyamino)-2 (R)-isobutylsuccinyl]-L-3-(1-naphtyl)-alanine-N-methylamide, reference compound]: in assay [1] (read-out: IC50), the IC50 worked out at 1700 nM. Besides, the “Amount of test compound required for 50% suppression of epidermal hyperplasia” value in assay [2] is given as 40 10^−6 g/cm^2.
